In PubChem BioAssay (NCI):
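The concentration for 50% growth inhibition is given as GI50. Definition used: TGI = concentration required for complete inhibition of growth.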

What was measured:
Experiment in all cases: NCI anticancer screen, dose series, 384-well format
[1] = test system: 786-0 renal
[2] = test system: A498 renal
[3] = test system: A549 NSCLC
[4] = test system: ACHN renal
[5] = test system: BT-549 breast
[6] = test system: CAKI-1 renal
[7] = test system: CCRF-CEM leukemia
[8] = test system: COLO 205 colon
[9] = test system: DU-145 prostate
[10] = test system: EKVX NSCLC
[11] = test system: HCC-2998 colon
[12] = test system: HCT-116 colon
[13] = test system: HCT-15 colon
[14] = test system: HL-60(TB) leukemia
[15] = test system: HOP-62 NSCLC
[16] = test system: HOP-92 NSCLC
[17] = test system: HS 578T breast
[18] = test system: HT29 colon
[19] = test system: IGROV1 ovarian
[20] = test system: K-562 leukemia
[21] = test system: KM12 colon
[22] = test system: LOX IMVI melanoma
[23] = test system: M14 melanoma
[24] = test system: MALME-3M melanoma
[25] = test system: MCF7 breast
[26] = test system: MDA-MB-231 breast
[27] = test system: MDA-MB-435 melanoma
[28] = test system: MDA-MB-468 breast
[29] = test system: MOLT-4 leukemia
[30] = test system: NCI-H226 lung
[31] = test system: NCI-H23 lung
[32] = test system: NCI-H322M lung
[33] = test system: NCI-H460 NSCLC
[34] = test system: NCI-H522 lung
[35] = test system: NCI/ADR-RES ovarian
[36] = test system: OVCAR-3 ovarian
[37] = test system: OVCAR-4 ovarian
[38] = test system: OVCAR-8 ovarian
[39] = test system: PC-3 prostate
[40] = test system: RPMI-8226 leukemia
[41] = test system: RXF 393 renal
[42] = test system: SF-268 CNS
[43] = test system: SF-295 CNS
[44] = test system: SF-539 CNS
[45] = test system: SK-MEL-28 melanoma
[46] = test system: SK-MEL-5 melanoma
[47] = test system: SK-OV-3 ovarian
[48] = test system: SN12C renal
[49] = test system: SNB-19 CNS
[50] = test system: SNB-75 CNS
[51] = test system: SW-620 colon
[52] = test system: T-47D breast
[53] = test system: TK-10 renal
[54] = test system: U251 glioblastoma
[55] = test system: UACC-257 melanoma
[56] = test system: UACC-62 melanoma
[57] = test system: UO-31 renal
[58] = test system: OVCAR-5 ovarian
[59] = test system: SR leukemia

## COc1cc(N2CCC(N)CC2)ccc1Nc1ncc(Cl)c(-c2c[nH]c3ccccc23)n1
[1]
  GI50: 1010 nM
  TGI: 2190 nM
[2]
  GI50: 296 nM
  TGI: 1330 nM
[3]
  GI50: 858 nM
  TGI: 2120 nM
[4]
  GI50: 535 nM
  TGI: 1860 nM
[5]
  GI50: 1140 nM
  TGI: 2360 nM
[6]
  GI50: 252 nM
  TGI: 1070 nM
[7]
  GI50: 886 nM
  TGI: 2100 nM
[8]
  GI50: 44.1 nM
  TGI: 1070 nM
[9]
  GI50: 389 nM
  TGI: 1710 nM
[10]
  GI50: 215 nM
  TGI: 1470 nM
[11]
  GI50: 349 nM
  TGI: 1680 nM
[12]
  GI50: 361 nM
  TGI: 1580 nM
[13]
  GI50: 265 nM
  TGI: 1460 nM
[14]
  GI50: 21.4 nM
  TGI: 424 nM
[15]
  GI50: 1220 nM
  TGI: 2490 nM
[16]
  GI50: 377 nM
  TGI: 1670 nM
[17]
  GI50: 651 nM
  TGI: 1870 nM
[18]
  GI50: 55.9 nM
  TGI: 1350 nM
[19]
  GI50: 284 nM
  TGI: 1000 nM
[20]
  GI50: 876 nM
  TGI: 2130 nM
[21]
  GI50: 209 nM
  TGI: 679 nM
[22]
  GI50: 541 nM
  TGI: 1860 nM
[23]
  GI50: 388 nM
  TGI: 1620 nM
[24]
  GI50: 172 nM
  TGI: 1510 nM
[25]
  GI50: 59.5 nM
  TGI: 1220 nM
[26]
  GI50: 1080 nM
  TGI: 2300 nM
[27]
  GI50: 395 nM
  TGI: 1790 nM
[28]
  GI50: 667 nM
  TGI: 1930 nM
[29]
  GI50: 437 nM
  TGI: 1640 nM
[30]
  GI50: 112 nM
  TGI: 663 nM
[31]
  GI50: 318 nM
  TGI: 1760 nM
[32]
  GI50: 254 nM
  TGI: 1420 nM
[33]
  GI50: 184 nM
  TGI: 1390 nM
[34]
  GI50: 221 nM
  TGI: 1230 nM
[35]
  GI50: 1480 nM
  TGI: 2810 nM
[36]
  GI50: 666 nM
  TGI: 2040 nM
[37]
  GI50: 1210 nM
  TGI: 2480 nM
[38]
  GI50: 1170 nM
  TGI: 2410 nM
[39]
  GI50: 1090 nM
  TGI: 2330 nM
[40]
  GI50: 476 nM
  TGI: 1580 nM
[41]
  GI50: 739 nM
  TGI: 2050 nM
[42]
  GI50: 1150 nM
  TGI: 2400 nM
[43]
  GI50: 1450 nM
  TGI: 2770 nM
[44]
  GI50: 453 nM
  TGI: 1820 nM
[45]
  GI50: 1270 nM
  TGI: 2530 nM
[46]
  GI50: 610 nM
  TGI: 2040 nM
[47]
  GI50: 334 nM
  TGI: 1440 nM
[48]
  GI50: 513 nM
  TGI: 1860 nM
[49]
  GI50: 1570 nM
  TGI: 2940 nM
[50]
  GI50: 322 nM
  TGI: 1440 nM
[51]
  GI50: 254 nM
  TGI: 1330 nM
[52]
  GI50: 1180 nM
  TGI: 2410 nM
[53]
  GI50: 988 nM
  TGI: 2180 nM
[54]
  GI50: 1210 nM
  TGI: 2480 nM
[55]
  GI50: 789 nM
  TGI: 2100 nM
[56]
  GI50: 385 nM
  TGI: 1770 nM
[57]
  GI50: 655 nM
  TGI: 1950 nM

## COCCn1c2c([n+](Cc3cnccn3)c1C)C(=O)c1ccccc1C2=O
[1]
  GI50: < 10 nM
  TGI: 13 nM
[2]
  GI50: 159 nM
  TGI: 1230 nM
[3]
  GI50: < 10 nM
  TGI: 12.9 nM
[4]
  GI50: 17.6 nM
  TGI: 45.7 nM
[5]
  GI50: < 10 nM
  TGI: < 10 nM
[6]
  GI50: < 10 nM
  TGI: < 10 nM
[7]
  GI50: < 10 nM
  TGI: 16.5 nM
[8]
  GI50: < 10 nM
  TGI: 11 nM
[9]
  GI50: < 10 nM
  TGI: < 10 nM
[10]
  GI50: < 10 nM
  TGI: < 10 nM
[11]
  GI50: < 10 nM
  TGI: 14.3 nM
[13]
  GI50: 40.3 nM
  TGI: 735 nM
[14]
  GI50: < 10 nM
  TGI: < 10 nM
[15]
  GI50: < 10 nM
  TGI: 15.2 nM
[16]
  GI50: < 10 nM
  TGI: < 10 nM
[17]
  GI50: 19.8 nM
  TGI: 125 nM
[18]
  GI50: 18 nM
  TGI: 55.4 nM
[19]
  GI50: < 10 nM
  TGI: < 10 nM
[20]
  GI50: < 10 nM
  TGI: < 10 nM
[21]
  GI50: 26 nM
  TGI: 114 nM
[22]
  GI50: < 10 nM
  TGI: < 10 nM
[23]
  GI50: < 10 nM
  TGI: 12 nM
[24]
  GI50: 16.1 nM
  TGI: 37.9 nM
[25]
  GI50: < 10 nM
  TGI: < 10 nM
[26]
  GI50: < 10 nM
  TGI: < 10 nM
[27]
  GI50: < 10 nM
  TGI: < 10 nM
[28]
  GI50: < 10 nM
  TGI: < 10 nM
[29]
  GI50: < 10 nM
  TGI: < 10 nM
[30]
  GI50: 11.4 nM
  TGI: 40.4 nM
[31]
  GI50: < 10 nM
  TGI: < 10 nM
[32]
  GI50: < 10 nM
  TGI: 25.9 nM
[33]
  GI50: < 10 nM
  TGI: 12.2 nM
[34]
  GI50: < 10 nM
  TGI: < 10 nM
[35]
  GI50: 18800 nM
  TGI: > 100000 nM
[36]
  GI50: < 10 nM
  TGI: < 10 nM
[37]
  GI50: < 10 nM
  TGI: < 10 nM
[58]
  GI50: < 10 nM
  TGI: 16.5 nM
[38]
  GI50: < 10 nM
  TGI: < 10 nM
[39]
  GI50: < 10 nM
  TGI: < 10 nM
[40]
  GI50: < 10 nM
  TGI: < 10 nM
[41]
  GI50: < 10 nM
  TGI: 12.1 nM
[42]
  GI50: < 10 nM
  TGI: < 10 nM
[43]
  GI50: 10.4 nM
  TGI: 22.5 nM
[44]
  GI50: < 10 nM
  TGI: < 10 nM
[45]
  GI50: < 10 nM
  TGI: < 10 nM
[46]
  GI50: < 10 nM
  TGI: < 10 nM
[47]
  GI50: < 10 nM
  TGI: < 10 nM
[48]
  GI50: < 10 nM
  TGI: < 10 nM
[49]
  GI50: < 10 nM
  TGI: < 10 nM
[50]
  GI50: < 10 nM
  TGI: < 10 nM
[59]
  GI50: < 10 nM
  TGI: < 10 nM
[51]
  GI50: < 10 nM
  TGI: 10.3 nM
[52]
  GI50: < 10 nM
  TGI: < 10 nM
[53]
  GI50: < 10 nM
  TGI: 24 nM
[54]
  GI50: < 10 nM
  TGI: < 10 nM
[55]
  GI50: < 10 nM
  TGI: < 10 nM
[56]
  GI50: < 10 nM
  TGI: < 10 nM
[57]
  GI50: 377 nM
  TGI: 7730 nM
